One assay has as its system PK40. Description: 32P kinase assay, ATP dependence and inhibition of PK40 activity with dephosphorylated NF-M as substrate. The class given is biochemical, bovine. The following applies: for relative activity [%] of PK40: % of control. As to the method:
(§1) An alternative method for assaying the phosphorylating activity of the kinases was by ^32P assays. Radioactive assays in the same buffer system as for immunoassays contained 5 µg of HTP-purified native NF-triplet as substrate (3µg of substrate proteins other than NFs) and 150-250 cpm/pmole gamma-^32P-ATP. Incubation times were 15 minutes at 37°C for activities up to about 1 pmole/min/assay, since the assay responses were linear within these time intervals. Assays were stopped by cooling on ice, addition of 20 µl 25 mM EDTA and immediate transfer of the mixture onto glass filters (Whatman GF/A) wetted with 10% TCA/2% sodium pyrophosphate (PPA). The glass filters were washed twice for 1 hour and once for at least 3 hours in 10% TCA/2% PPA and finally in ethanol and were air-dried. Radioactivity was assessed by scintillation counting (Beckman LS 230) with 5 ml "Liquiscint" (National Diagnostics) for 20 minutes. Assays were routinely carried out in triplicate except for some duplicate assays in a few explicitly mentioned cases; a control assay lacking NFs was subtracted from the mean value.
The ATP dependence and inhibition of the activities of PK40 and PK36 were determined at 2 mM Mg^2+ with soluble dephosphorylated NF-M as second substrate to avoid uncertainties arising from the aggregation state of NF-triplet in suspension. The optima were at 0.5 - 1 mM ATP for both kinases. Apparent Km values for ATP of both kinases were estimated from Woolf-Hanes plots (Dixon and Webb, 1979) for a range of ATP concentrations sufficiently below the onset of inhibition. […] The apparent Km of PK36 was approximately 50 µM.

Another assay has as its system PK36. As to the kind of experiment: 32P kinase assay, ATP dependence and inhibition of PK36 activity with dephosphorylated NF-M as substrate. The assay is classed as biochemical, bovine. The following applies: % of control. On the procedure: as §1, with “Incubation times were 15 minutes at 37°C for activities up to about 1 pmole/min/assay, since the assay responses were linear within these time intervals. Assays were stopped by cooling on ice, addition of 20 µl 25 mM EDTA and immediate transfer of the mixture onto glass filters (Whatman GF/A) wetted with 10% TCA/2% sodium pyrophosphate (PPA).” left out

Assay [1] has as its target KSP-phosphorylating kinases. Description: Immuno-dotblot assay (SMI-31/SMI-34) of crude enzyme with dephosphorylated NF-triplet. The class given is biochemical, bovine. The following applies: ATP [5mM]. On the procedure:
The preferred method for the immunoassay for detecting KSP-phosphorylating kinases is as follows. Dephosphorylated NF-triplet protein was incubated with the 35-45% ammonium sulfate fraction of the brain supernatant (see section B.). Immuno-dotblot assays were performed in 50 mM HEPES, pH 7.0, 2 mM MgCl2, […], 2 mM DTT in a total volume of 30 µl with 5 µg of dephosphorylated native NF-triplet or 1.2 µg of dephosphorylated pure subunits NF-M or NF-H as substrates together with a control assay lacking NFs. After incubation at 37°C for 18 hours, assays were diluted to 100 µl with 10 mM PBS, pH 7.2, and aliquots of 50 µl were spotted on nitrocellulose (0.22µm, Schleicher and Schüll). Blots were blocked by 1 hour incubation with 3% BSA in 10mM PBS, pH 7.2, and washed once in 0.5% Triton-X100/10 mM PBS. Antibodies were diluted in sterile 10 mM PBS, pH 7.2, 0.5% Triton-X100, 10% fetal calf serum. Blots were incubated with SMI mAbs for at least 2 hours. The blots were then washed five times. Mouse mAbs were detected by reaction with horseradish-peroxidase-linked goat-anti-mouse antibody (Cappel Co.) in 1:200 dilution and by staining with 0.05% 4-chloro-1-naphthol (Sigma) and 0.05% H2O2 in 50 mM TBS, pH 7.5, 33% ethanol for 5-20 minutes. All incubations and washes were at room temperature. Incubations were sealed in plastic bags with 50 µl of solution/cm^2 membrane. […]

Assay [2] deals with kinase PK40 (bovine brain) (bovine). As to the kind of experiment: cell-based or functional assay.

Where “and” joins values, the source holds several entries; their conditions need not be identical. Equal entries are not always repeated.

As to `[Cl-].[Na+]` [NaCl, sodium chloride], in the assay on PK40 (NaCl 150mM, 15 min, 150000 µM), the “relative activity [%] of PK40” value was 27% and 27±1.8%. The “relative activity [%] of PK36” value with PK36 (NaCl 150mM, 15 min, 150000 µM) was 40% and 40±0.8%.

The term Km denotes the substrate concentration at which the rate is half of its maximum. With ATP, the “relative activity [%] of PK40” value in the assay with PK40 (5mM Mg^2, 5mM ATP) turned out to be 78±7.1%. Besides, in the assay on PK40 (ATP in relatively small excess over Mg^2+), the “inhibition of PK40 by an excess of ATP” value is on record as “strongly inhibited”. In addition, the Km in the assay on PK40 (PK40, 2 mM Mg^2+, Woolf-Hanes plots, mean ± S.D. of three determinations at three NF-M concentrations, read-out: apparent Km value for ATP) was 93 ± 12 µM. In addition, in the assay on PK36 (5mM Mg^2, 5mM ATP), the “relative activity [%] of PK36” value was determined as 38±2.2%. Further, the “kinase activity (reconstitution of SMI-31 and SMI-34 epitopes)” value in assay [1] is listed as “inhibited”.

In assay [2], Walsh inhibitor came in with a relative activity [%] at Walsh Inhibitor 1.5 [M, as printed] (% of the control) of 107; a relative activity [%] at Walsh Inhibitor 4.5 [M, as printed] (% of the control) of 102; a relative activity [%] at Walsh Inhibitor 45 [M, as printed] (% of the control) of 101.
